{"source": "patent US9724537B2", "about": "“Abnormal electrical conduction blocking apparatus using photodynamic therapy (PDT)” (Keio University, priority 2006, dated 2017)", "key": {"[1]": {"tested_on": "isolated right ventricular free wall of a Wistar rat", "test": "PDT electrical conduction block experiment in ex vivo system", "procedure": "As materials, spread samples of an isolated right ventricular free wall of a Wistar rat (male, 8 to 10 weeks old) were used. The length (L) and the thickness (d) of sample photoradiation lines in each experiment are as follows.\nExperiment 1: L=0.9 cm, d=1.5 mm\nExperiment 2: L=0.76 cm, d=1.5 mm\nExperiment 3: L=1.2 cm, d=1.4 mm\nExperiment 4: L=0.88 cm, d=1.4 mm\nTyrode's solution (95% O2 and 5% CO2 gases were passed through, and the temperature was maintained at 37° C. in a constant-temperature apparatus) was used as a perfusion fluid.\nImmediately after isolation, the heart was dipped in the perfusion fluid heated at about 37° C., and a right ventricular tissue was ablated. The ablated tissue was fixed on the silicon floor of a tissue bath with a 0.2 mmφ tungsten wire, and then the perfusion fluid was allowed to flow.\nImmediately after rats were allowed to inhale vaporized diethyl ether, heparin and Nembutal (0.2 and 0.5 ml, respectively) were administered intraperitoneally, and approx. 0.5 ml of talaporfin sodium (Laserphyrin [registered trade name] Meiji Seika Kaisha, Ltd.) dissolved in physiological saline was intravenously injected from the vena cava of the rat lower extremity. After the heart was isolated, a right ventricular tissue was ablated in a normal Tyrode's solution and fixed in a tissue bath. Then, Tyrode's solutions in which talaporfin sodium was dissolved at various concentrations (see Reference Example 1 described later, set assuming a half of the plasma concentration at each dose and interval as blood concentration) (these are referred to as photosensitizer solutions), and loaded by circulatory perfusion for a period equal to time required from the heart isolation to bath fixation (approx. 10 min), and laser irradiation was performed with surface perfusion. The photosensitizer dose (D), the interval to heart isolation, and the concentration of the photosensitizer solution (c) in each experimental example were as follows.\nExperiment 1: D=5 mg/kg; interval, 30 min; c=30 μg/ml\nExperiment 2: D=5 mg/kg; interval, 60 min; c=20 μg/ml\nExperiment 3: D=2 mg/kg; interval, 30 min; c=12 μg/ml\nExperiment 4: D=2 mg/kg; interval, 60 min; c=8 μg/ml\nA continuous semiconductor laser beam (SONY, peak wavelength, 670 band) was transmitted with a quartz fiber (core diameter, 800 μm), and the fiber was used virtually in contact with the tissue surface with an output at the end thereof being 5 mW. Laser irradiation was performed while reciprocating the fiber horizontally across the tissue over approx. 1 cm on the tissue surface. The laser irradiation time (T) and the total dose of laser irradiation (It) in each experimental example were as follows.\nExperiment 1: T=60 s, It=4.2 J/cm^2\nExperiment 2: T=80 s, It=6.6 J/cm^2\nExperiment 3: T=267 s, It=14 J/cm^2\nExperiment 4: T=500 s, It=36 J/cm^2\n0.8-mA electrical stimulus was applied from a bipolar electrode (Unique Medical Co., Ltd., obtained by twining 0.2-mmφ silver chloride wires) with a stimulator and an isolator (Nihon Kohden Corporation) every 300 ms, and two bipolar electrodes for measuring a potential (Unique Medical Co., Ltd., 0.25 mmφ stainless) were placed on the tissue surface to measure a extracellular potential (FIG. 24). […] A signal was led to a bioamplifier (Physio-Tech Co., Ltd., DAM50) and recorded and analyzed using a biosignal recording/analyzing apparatus (AD Instrumens) (FIG. 25). FIG. 25 is a schematic view showing an ex vivo experimental system.\nFIGS. 26 to 29 show extracellular potentials before and after PDT a led potential in each experiment. In FIGS. 26 to 29, the upper line (red line) and the lower line (blue line) in one graph represent potentials in X and Y in FIG. 24, respectively. The vertical axis represents voltage."}, "[2]": {"test": "Fluorescence observation of photosensitizer distribution in rat cardiac muscle tissue over time", "format": "in vivo, Wistar rat", "settings": "2 mg/kg i.v.", "procedure": "As a tissue, the right ventricular free wall isolated from a Wistar rat (male, 8 to 10 weeks old) was used. Immediately after animals were allowed to inhale vaporized diethyl ether, heparin and Nembutal (0.2 and 0.5 ml, respectively) were administered intraperitoneally at a dose of 2 mg/kg, and a solution of Laserphyrin (Meiji Seika Kaisha, Ltd.) dissolved in physiological saline at a dose of 0.5 ml were intravenously injected from the lower extremity vena cava. The heart was isolated at 5 min (Experiment 1), 30 min (Experiment 2), and 60 min (Experiment 3) after injection, and the target tissue was ablated. […] As a sample for fluorescence observation, a cross-section of the above-mentioned tissue was excised in a thickness of 10 μm using a freezing microtome in the direction in which the base and the apex of the heart are aligned, placed on a slide glass, and dried for one or two days.\nA light of a mercury lamp (Olympus Corporation) was attenuated with an ND filter (Olympus Corporation, 12%), and only a light in the 400-nm band was extracted with a band path filter (Olympus Corporation) and delivered to the sample as an excitation light. Fluorescence of the photosensitizer was selectively extracted with a dichroic mirror (OMEGA, 636 nm-) and a band path filter (OMEGA, 695 nm; half bandwidth, 27.5 nm) and photographed with a CCD camera. […]"}, "[3]": {"test": "Pharmacokinetics of talaporfin sodium, rat plasma", "format": "in vivo", "settings": "intravenous", "procedure": "FIG. 45 is a graph showing changes in plasma concentrations after intravenous injection to rats at various doses (10, 5, 2, 1 mg/kg) and to humans at 1 mg/kg over time, using data in pharmacology studies and clinical studies with talaporfin sodium. In rats, the average of the mean plasma concentrations measured at 47 min, which was the average of the half-lives from 2 to 60 min after intravenous injection at a dose of 10 mg/kg, and at 5 min was used as true values, and concentration changes were calculated until 60 min. Furthermore, a straight line was drawn between the value at 60 min and the value at 120 min calculated using the average of the plasma concentrations measured at 9.6 h, which was the average of the half-lives from 2 to 24 h after intravenous injection, and at 24 h as a true value. Changes at each dose were calculated assuming that the plasma concentration changed in proportion to the dose."}, "[4]": {"settings": "Experiment 1: 5 mg/kg i.v., interval 30 min, 30 μg/ml, 4.2 J/cm^2"}, "[5]": {"settings": "Experiment 2: 5 mg/kg i.v., interval 60 min, 20 μg/ml, 6.6 J/cm^2"}, "[6]": {"settings": "Experiment 3: 2 mg/kg i.v., interval 30 min, 12 μg/ml, 14 J/cm^2"}, "[7]": {"settings": "Experiment 4: 2 mg/kg i.v., interval 60 min, 8 μg/ml, 36 J/cm^2"}}, "data": [{"smiles": "C=Cc1c(C)c2cc3nc(c(CC(=O)N[C@@H](CC(=O)O)C(=O)O)c4[nH]c(cc5nc(cc1[nH]2)C(C)=C5CC)c(C)c4C(=O)O)[C@@H](CCC(=O)O)[C@@H]3C", "note": "[talaporfin sodium, mono-L-aspartyl chlorine 6]", "values": [{"measurement": "electrical conduction block after PDT", "setting": "[1]; [4]", "result": "an electrical conduction block occurred after PDT"}, {"measurement": "time the conduction block state was maintained", "setting": "[1]; [4]", "result": 3, "unit": "h"}, {"measurement": "electrical conduction block after PDT", "setting": "[1]; [5]", "result": "an electrical conduction block occurred after PDT"}, {"measurement": "time the conduction block state was maintained", "setting": "[1]; [5]", "result": 2, "unit": "h"}, {"measurement": "electrical conduction block after PDT", "setting": "[1]; [6]", "result": "an electrical conduction block occurred after PDT"}, {"measurement": "time the conduction block state was maintained", "setting": "[1]; [6]", "result": 3, "unit": "h"}, {"measurement": "electrical conduction block after PDT", "setting": "[1]; [7]", "result": "an electrical conduction block occurred after PDT"}, {"measurement": "time the conduction block state was maintained", "setting": "[1]; [7]", "result": 3, "unit": "h"}, {"measurement": "photosensitizer distribution in cardiac muscle tissue", "setting": "[2]; 30 and 60 min after injection", "result": "white streaks were observed all over the images at 30 and 60 min, showing the existence of the photosensitizer in the surroundings"}, {"measurement": "photosensitizer distribution in cardiac muscle tissue", "setting": "[2]; approx. 5 min after injection", "result": "almost no photosensitizer was present immediately after the intravenous injection"}, {"measurement": "concentration at 30 min", "setting": "[3]; conditions of Experiment 3 (2 mg/kg, interval 30 min)", "result": 24000, "unit": "ng/mL"}, {"measurement": "concentration at 60 min", "setting": "[3]; conditions of Experiment 4 (2 mg/kg, interval 60 min)", "result": 16000, "unit": "ng/mL"}]}]}
